# From patent publication US20250287950A1, “FUNGICIDAL USE” (Adama Makhteshim Ltd., priority 2021, published 2025)
# Tests used:
# [1] = tested on: Mycosphaerella fijiensis (black sigatoka); assay: Black sigatoka open field trial in banana, one application (Example 8a); format: in vivo
# Protocol: To test for fungicidal control of Mycosphaerella fijiensis the trial was realized in open field. […] Each of the above treatments was applied once when plants were showing a disease infection of 5%. The treatments composed of 4 replicates. The experimental design was a randomized complete block design. Data was analyzed using an ANOVA at the 95% confidence interval.
# The level of infection was determined based on the weighted average of infection (PPI) using the Stover scale modified by Gaulh on 5 plants per plot.
# [2] = tested on: Mycosphaerella fijiensis (black sigatoka); assay: Black sigatoka open field trial in banana, 12 applications, leaves per plant (Example 8b); format: in vivo; conditions: folpet 850 g a.i./ha
# Text: To test fungicidal control of Mycosphaerella fijiensis, the trial was realized in open field. […] All treatments were applied in a water solution: no mineral oil added.
# Experimental unit consisted of 9 banana plants surrounded by Musa textilis, a variety tolerant to Black Sigatoka, used as border plants. The trial followed a complete randomized design, each treatment was replicated three times.
# Applications were done every 6 days. All treatments had 12 applications.
# The total leaves per plant was evaluated. A high number of leaves at harvest translates to more capability keep the fruit in post-harvest.
# Treatment response to black Sigatoka was evaluated using the Stover scale modified by Gauhl.
# The statistical analysis was done with INFOSTAT program, using a multiple comparison test (LSD) for every parameter.
structure (smiles),measurement,setting,value
O=C1c2ccccc2C(=O)N1SC(Cl)(Cl)Cl [folpet],efficacy relative to the mancozeb reference product (in words),[1]; dose of 750 g a.i./ha,comparable to the one provided by the reference product based on mancozeb
same,control of black sigatoka disease (in words),[1]; low doses of 500 and 625 g a.i./ha,good control
same,number of leaves per plant in comparison to the untreated and the mancozeb standard (in words),[2],higher number of leaves per plant
